The nature of this series: Dispersion in tap water, then in simulated gastric and enteric liquid (GSF, FaSSIF V2). It counts as physicochemical. The conditions noted are these: 500 mg in 100 ml tap water, then GSF and FaSSIF V2, 37°C, 250 rpm, magnetic stirring (Figure 10). An excerpt: • Figure 1. Representative image of the in vitro model of intestinal epithelium, with the Caco-2 cell monolayer grown on a Transwell® insert. • Figure 2. (A) Electron micrograph of enterocytes forming the Caco-2 monolayer with the microvilli and occluding junctions highlighted; (B) Confocal microscopy images highlighting the occluding junctions (red) and cell nuclei (blue). • Figure 3. Dimensional distribution of PEAMag®, normast® MPS microgranules and PEA of the invention measured by DLS at the end of the digestive process in vitro. • Figure 4. Bioaccessibility (A) and excreted fraction (B) of the PEA present in the three formulations, following exposure to the digestive process (* p<0.05). • Figure 5. Cell viability of intestinal epithelia exposed to digestive fluids in the absence of the formulations (0%) and increasing concentrations of PEAMag® (A), normast® MPS microgranules (B) and PEA of the invention (C) for 3 h (*cell viability < 70%). • Figure 6. TEER of intestinal epithelia exposed to digestive fluids in the absence of the formulations (0%) and increasing concentrations of PEAMag® (A), normast® MPS microgranules (B) and PEA of the invention (C) for 3 h. • Figure 7. […]

Turning to `CCCCCCCCCCCCCCCC(=O)NCCO` [PEA, Palmitoylethanolamide], the dispersion behaviour entry was “emergence of the PEA on the surface of the liquid”.

Values taken from EP4169506B1, “PALMITOYLETHANOLAMIDE-BASED COMPOSITION IN THE FORM OF POWDERS WITH HIGH ENTERIC BIOACCESSIBILITY” (Geofarma S.r.l., priority 2021, dated 2023).
